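Method: 48-hour compound exposure of cells in 96-well plates, five concentrations, linear interpolation of endpoints. GI50 is the concentration that inhibits growth by half. At the TGI there is no net growth.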
Experiments:
Test in all cases: NCI anticancer screen, dose series, 48 h
786-0 renal = tested on: 786-0 renal
EKVX NSCLC = tested on: EKVX NSCLC
MDA-N = tested on: MDA-N
OVCAR-8 ovarian = tested on: OVCAR-8 ovarian
PC-3 prostate = tested on: PC-3 prostate
TK-10 renal = tested on: TK-10 renal
UACC-257 melanoma = tested on: UACC-257 melanoma
UACC-62 melanoma = tested on: UACC-62 melanoma
UO-31 renal = tested on: UO-31 renal

C[N+]1(CCC(=O)c2ccccc2)CCC2CCC(C2)C1 (stereo not drawn)
TGI (786-0 renal): > 100 µM
TGI (EKVX NSCLC): > 100 µM
TGI (MDA-N): > 100 µM
TGI (OVCAR-8 ovarian): > 100 µM
TGI (PC-3 prostate): > 100 µM
TGI (TK-10 renal): > 100 µM
TGI (UACC-257 melanoma): > 100 µM
TGI (UACC-62 melanoma): > 100 µM
TGI (UO-31 renal): > 100 µM

CCOC(=O)c1c(-c2cccc(Cl)c2)c(C(=O)OC)c(C)c2sc(C=O)nc12
TGI (EKVX NSCLC): 31.9 µM
TGI (MDA-N): 56.7 µM
TGI (OVCAR-8 ovarian): 41.9 µM
TGI (PC-3 prostate): 37.5 µM
TGI (TK-10 renal): 50 µM
TGI (UACC-257 melanoma): > 100 µM
TGI (UACC-62 melanoma): 32.2 µM
TGI (UO-31 renal): 37.8 µM

O=C(Nc1ccc(-n2ccc3c(NC(=O)c4ccccc4)nccc32)cc1)Nc1cccc(C(F)(F)F)c1
GI50 (EKVX NSCLC): 5.73 µM
TGI (EKVX NSCLC): 22.1 µM
GI50 (OVCAR-8 ovarian): 4.35 µM
TGI (OVCAR-8 ovarian): 17.9 µM
GI50 (PC-3 prostate): 1.8 µM
TGI (PC-3 prostate): 8.56 µM
GI50 (TK-10 renal): 3.87 µM
TGI (TK-10 renal): 18.8 µM
GI50 (UACC-257 melanoma): 11.2 µM
TGI (UACC-257 melanoma): 26 µM
GI50 (UACC-62 melanoma): 7.36 µM
TGI (UACC-62 melanoma): 20.4 µM
GI50 (UO-31 renal): 13.4 µM
TGI (UO-31 renal): 31.7 µM

O=C(/C=C1\N=C(c2ccccc2)N(c2nc3c(Cl)cc(Cl)cc3s2)C1=O)/C=C/c1ccccc1
TGI (786-0 renal): > 100 µM
TGI (EKVX NSCLC): > 100 µM
TGI (MDA-N): > 100 µM
TGI (OVCAR-8 ovarian): > 100 µM
TGI (PC-3 prostate): > 100 µM
TGI (TK-10 renal): > 100 µM
TGI (UACC-257 melanoma): > 100 µM
TGI (UACC-62 melanoma): > 100 µM
TGI (UO-31 renal): > 100 µM

N#Cc1ccccc1C#C/C=C\C#Cc1ccccc1N
GI50 (EKVX NSCLC): 10 µM
TGI (EKVX NSCLC): > 57.3 µM
GI50 (OVCAR-8 ovarian): 7.27 µM
TGI (OVCAR-8 ovarian): > 30 µM
GI50 (PC-3 prostate): 5.99 µM
TGI (PC-3 prostate): > 75.9 µM
GI50 (TK-10 renal): 5.02 µM
TGI (TK-10 renal): > 49.3 µM
TGI (UACC-257 melanoma): > 22.8 µM
GI50 (UACC-62 melanoma): 3.03 µM
TGI (UACC-62 melanoma): > 33.6 µM
GI50 (UO-31 renal): 4.79 µM
TGI (UO-31 renal): > 25.7 µM

CC1=C[C@@H](C)C[C@]2(C)CC[C@H](O2)[C@]23CC[C@](CO)(C[C@H](O2)[C@@H]2O[C@@](C)(CC2=O)[C@@H](O)[C@H]2CC[C@@]4(CCC[C@@H](O4)[C@H](C)C(=O)O[C@H]4C[C@H]([C@]5(O)OCC[C@H](C)[C@@H]5O)O[C@H]4C=C1)O2)O3
TGI (MDA-N): > 10 µM
TGI (OVCAR-8 ovarian): > 4.19 µM
TGI (PC-3 prostate): > 10 µM
TGI (TK-10 renal): 0.0714 µM
TGI (UACC-62 melanoma): > 9.63 µM
TGI (UO-31 renal): 0.207 µM

CN(C)C(=O)OC1=CC2CCC(C1)N2C (stereo not drawn)
TGI (786-0 renal): > 100 µM
TGI (EKVX NSCLC): > 100 µM
TGI (MDA-N): > 100 µM
TGI (OVCAR-8 ovarian): > 100 µM
TGI (PC-3 prostate): > 100 µM
TGI (TK-10 renal): > 100 µM
TGI (UACC-257 melanoma): > 100 µM
TGI (UACC-62 melanoma): > 100 µM
TGI (UO-31 renal): > 100 µM

CC(=O)Nc1ccc(C(=O)NN2C(=O)C(Cl)C2c2cccc([N+](=O)[O-])c2)cc1 (stereo not drawn)
TGI (OVCAR-8 ovarian): > 100 µM
TGI (TK-10 renal): > 100 µM
TGI (UACC-257 melanoma): > 100 µM
TGI (UACC-62 melanoma): > 100 µM
TGI (UO-31 renal): > 100 µM

Source: PubChem BioAssay (NCI)
